ChEMBL document CHEMBL4673373, “Discovery and optimization of substituted oxalamides as novel heme-displacing IDO1 inhibitors” (Bioorg Med Chem Lett, 2021)

Key:
[1] = target: Tryptophan 2,3-dioxygenase (Homo sapiens, UniProt P48775); assay: Inhibition of TDO in HEK cells; type: cell-based
[2] = target: T1, Indoleamine 2,3-dioxygenase 1 (Homo sapiens, UniProt P14902); assay: Inhibition of IDO1 in human SKOV3 cells; type: cell-based, SK-OV-3
Target sequence in this assay (P14902 whole entry): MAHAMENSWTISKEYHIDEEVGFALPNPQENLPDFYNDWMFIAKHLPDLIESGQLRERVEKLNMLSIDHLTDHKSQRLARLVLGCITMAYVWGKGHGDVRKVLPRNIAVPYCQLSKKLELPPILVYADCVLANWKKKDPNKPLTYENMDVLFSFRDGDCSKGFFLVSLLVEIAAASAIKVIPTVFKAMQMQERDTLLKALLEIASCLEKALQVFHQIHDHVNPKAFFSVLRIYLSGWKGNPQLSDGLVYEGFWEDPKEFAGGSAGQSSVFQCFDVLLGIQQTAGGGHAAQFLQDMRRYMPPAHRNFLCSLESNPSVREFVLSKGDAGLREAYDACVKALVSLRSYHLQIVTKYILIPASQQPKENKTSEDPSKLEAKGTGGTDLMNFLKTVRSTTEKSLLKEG

[3] = Metabolic stability in mouse liver microsomes assessed as intrinsic clearance; type: ADME, Microsome; conditions: read-out: CLH
[4] = Metabolic stability in human liver microsomes assessed as intrinsic clearance; type: ADME, Microsome; conditions: read-out: CLH
hERG (KCNH2) [5] = target: T2, hERG (KCNH2) (Homo sapiens, UniProt Q12809); assay: Inhibition of human ERG at 10 uM relative to control
T2 sequence (Q12809 whole entry): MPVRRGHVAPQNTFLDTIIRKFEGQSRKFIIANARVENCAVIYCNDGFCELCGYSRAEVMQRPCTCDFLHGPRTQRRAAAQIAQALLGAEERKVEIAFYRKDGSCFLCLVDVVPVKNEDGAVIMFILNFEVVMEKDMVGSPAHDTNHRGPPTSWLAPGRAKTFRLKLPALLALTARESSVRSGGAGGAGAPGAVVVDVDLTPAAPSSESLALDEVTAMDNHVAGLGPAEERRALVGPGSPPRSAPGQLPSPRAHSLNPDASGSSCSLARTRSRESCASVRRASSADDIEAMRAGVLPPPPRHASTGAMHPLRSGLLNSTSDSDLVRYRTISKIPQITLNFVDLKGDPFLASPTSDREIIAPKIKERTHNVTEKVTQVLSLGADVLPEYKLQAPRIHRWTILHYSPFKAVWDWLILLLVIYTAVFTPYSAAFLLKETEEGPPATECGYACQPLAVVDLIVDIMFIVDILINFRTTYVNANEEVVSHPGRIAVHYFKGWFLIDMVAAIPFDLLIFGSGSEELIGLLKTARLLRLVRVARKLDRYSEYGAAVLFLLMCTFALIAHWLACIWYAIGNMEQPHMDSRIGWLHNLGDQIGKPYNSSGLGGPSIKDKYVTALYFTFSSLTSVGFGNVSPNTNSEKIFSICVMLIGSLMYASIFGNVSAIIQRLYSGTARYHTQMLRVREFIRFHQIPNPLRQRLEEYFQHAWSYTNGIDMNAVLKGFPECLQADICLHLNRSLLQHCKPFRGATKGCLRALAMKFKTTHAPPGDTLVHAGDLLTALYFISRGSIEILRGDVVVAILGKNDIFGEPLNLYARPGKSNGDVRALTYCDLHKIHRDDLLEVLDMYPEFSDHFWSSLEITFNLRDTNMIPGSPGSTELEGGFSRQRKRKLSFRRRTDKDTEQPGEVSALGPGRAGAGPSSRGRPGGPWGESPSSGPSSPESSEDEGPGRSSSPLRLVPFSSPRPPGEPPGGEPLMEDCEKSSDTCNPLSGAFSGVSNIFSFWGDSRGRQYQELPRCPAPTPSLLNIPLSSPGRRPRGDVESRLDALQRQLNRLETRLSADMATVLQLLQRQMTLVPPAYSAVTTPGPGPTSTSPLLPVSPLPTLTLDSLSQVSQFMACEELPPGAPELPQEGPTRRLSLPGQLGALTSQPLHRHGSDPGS

[6] = target: T1, Indoleamine 2,3-dioxygenase 1; assay: Inhibition of IDO1 in human whole blood; type: tissue-based
Target sequence in this assay (P14902 whole entry): as the sequence (P14902 whole entry) above

[7] = Plasma protein binding in human; type: ADME, cell-free; conditions: read-out: PPB (converted)
Cytochrome P450 2C8 = target: T3, Cytochrome P450 2C8 (Homo sapiens, UniProt P10632); assay: Inhibition of CYP2C8 (unknown origin); type: ADME
T3 sequence (P10632 whole entry): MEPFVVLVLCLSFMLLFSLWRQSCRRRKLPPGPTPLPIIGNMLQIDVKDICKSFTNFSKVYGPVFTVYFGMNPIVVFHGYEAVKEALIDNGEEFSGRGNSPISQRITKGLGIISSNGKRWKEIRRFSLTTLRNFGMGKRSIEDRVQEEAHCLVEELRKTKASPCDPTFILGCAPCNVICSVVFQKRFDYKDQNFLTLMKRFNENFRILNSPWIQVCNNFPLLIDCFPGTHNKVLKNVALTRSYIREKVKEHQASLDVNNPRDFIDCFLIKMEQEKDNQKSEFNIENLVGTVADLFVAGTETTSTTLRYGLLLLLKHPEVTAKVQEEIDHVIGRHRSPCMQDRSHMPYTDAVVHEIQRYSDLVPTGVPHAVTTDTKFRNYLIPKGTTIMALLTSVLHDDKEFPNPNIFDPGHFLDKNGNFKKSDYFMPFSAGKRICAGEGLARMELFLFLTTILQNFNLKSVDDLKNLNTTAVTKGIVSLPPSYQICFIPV

[8] = Plasma protein binding in mouse; type: ADME, cell-free; conditions: read-out: PPB (converted)
[9] = target: T1, Indoleamine 2,3-dioxygenase 1; assay: Binding affinity to IDO1 (unknown origin) assessed as change in melting temperature at 5 uM by thermal shift assay
Target sequence in this assay (P14902 whole entry, looked up): as the sequence (P14902 whole entry) above

[10] = Half life in mouse at 10 mg/kg, po; type: ADME, organism-based; conditions: in vivo
[11] = Cmax in mouse at 10 mg/kg, po; type: ADME, organism-based; parameters: route oral, dose 10 mg/kg; conditions: in vivo
hERG (KCNH2) [12] = target: T2, hERG (KCNH2); assay: Inhibition of human ERG assessed as reduction in channel tail current at 10 uM by patch clamp assay relative to control
[13] = AUC(0 to 8 hrs) in mouse at 10 mg/kg, po; type: ADME, organism-based; parameters: route oral, time 8 hrs, dose 10 mg/kg; conditions: in vivo
[14] = target: T1, Indoleamine 2,3-dioxygenase 1; assay: Inhibition of IDO1 (unknown origin) by enzymatic assay
Target sequence in this assay (P14902 whole entry): as the sequence (P14902 whole entry) above

Cytochrome P450 2D6 = Cytochrome P450 2D6 (Homo sapiens, UniProt P10635); assay: Inhibition of CYP2D6 (unknown origin); type: ADME
Cytochrome P450 2D6, sequence (P10635 whole entry): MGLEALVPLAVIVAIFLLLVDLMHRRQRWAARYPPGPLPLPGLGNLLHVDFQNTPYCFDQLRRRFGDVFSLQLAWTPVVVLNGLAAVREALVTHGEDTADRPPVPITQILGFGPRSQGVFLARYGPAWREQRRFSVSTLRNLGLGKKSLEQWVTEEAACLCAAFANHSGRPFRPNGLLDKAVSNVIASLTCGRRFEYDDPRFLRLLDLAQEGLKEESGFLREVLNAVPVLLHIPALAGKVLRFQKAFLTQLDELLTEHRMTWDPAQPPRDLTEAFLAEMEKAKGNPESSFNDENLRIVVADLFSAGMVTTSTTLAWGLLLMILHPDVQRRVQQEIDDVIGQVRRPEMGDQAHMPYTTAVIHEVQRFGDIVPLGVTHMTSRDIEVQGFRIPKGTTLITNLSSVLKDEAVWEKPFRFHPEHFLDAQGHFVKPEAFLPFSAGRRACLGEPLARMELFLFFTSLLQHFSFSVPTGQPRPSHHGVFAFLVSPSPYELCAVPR

Cytochrome P450 2C9 = Cytochrome P450 2C9 (Homo sapiens, UniProt P11712); assay: Inhibition of CYP2C9 (unknown origin); type: ADME
Cytochrome P450 2C9, sequence (P11712 whole entry): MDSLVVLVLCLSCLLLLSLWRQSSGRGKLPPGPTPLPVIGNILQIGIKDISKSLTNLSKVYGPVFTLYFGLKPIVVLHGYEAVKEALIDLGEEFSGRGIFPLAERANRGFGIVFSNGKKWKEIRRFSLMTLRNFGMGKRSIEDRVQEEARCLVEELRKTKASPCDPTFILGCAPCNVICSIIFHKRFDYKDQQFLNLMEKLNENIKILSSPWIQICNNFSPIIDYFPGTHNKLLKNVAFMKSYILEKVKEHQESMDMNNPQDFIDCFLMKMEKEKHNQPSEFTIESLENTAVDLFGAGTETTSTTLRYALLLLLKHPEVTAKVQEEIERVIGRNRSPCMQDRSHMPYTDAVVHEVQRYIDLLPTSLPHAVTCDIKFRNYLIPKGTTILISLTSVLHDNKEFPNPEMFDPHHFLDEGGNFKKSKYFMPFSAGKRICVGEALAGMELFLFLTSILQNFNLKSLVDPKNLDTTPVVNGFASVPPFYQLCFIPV

Tryptophan 2,3-dioxygenase, sequence (P48775 whole entry): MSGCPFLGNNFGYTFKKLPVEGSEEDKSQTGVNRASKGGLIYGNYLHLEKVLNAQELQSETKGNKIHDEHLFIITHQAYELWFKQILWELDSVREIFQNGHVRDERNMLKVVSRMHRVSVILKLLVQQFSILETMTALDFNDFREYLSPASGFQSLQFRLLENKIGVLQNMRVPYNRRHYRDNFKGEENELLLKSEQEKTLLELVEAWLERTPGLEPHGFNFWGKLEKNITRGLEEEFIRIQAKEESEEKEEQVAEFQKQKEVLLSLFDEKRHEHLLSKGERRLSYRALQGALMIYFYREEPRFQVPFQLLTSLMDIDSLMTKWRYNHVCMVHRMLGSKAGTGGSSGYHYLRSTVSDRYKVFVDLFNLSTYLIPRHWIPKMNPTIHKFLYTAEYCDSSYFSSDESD

SMILES	IC50 [1]	IC50 [2]	microsomal CLint [3]	microsomal CLint [4]	inhibition at 10 µM (hERG (KCNH2) [5])	also measured
O=C(Nc1ccc(Cl)cc1)C(=O)N1CCCC2(CC1)COc1cc(C(F)(F)F)ccc12 (centres undefined)	37 µM	0.7 µM				
O=C(Nc1ccc(Cl)cc1F)C(=O)N1CCC=C(c2ccnc3ccc(F)cc23)CC1	16 µM	0.005 µM	254 µL/min/mg	98 µL/min/mg		
O=C(Nc1ccc(Cl)cn1)C(=O)N1CCC2(CC1)COc1cc(C(F)(F)F)ccc12	6.4 µM	0.073 µM	63 µL/min/mg	6 µL/min/mg		
N#Cc1ccc2nccc(C3CCN(C(=O)C(=O)Nc4ccc(Cl)cc4)CC3)c2c1	6.1 µM	0.118 µM				
O=C(Nc1ccc(Cl)cc1)C(=O)N1CC[C@@H](c2ccnc3ccc(F)cc23)[C@@H](O)C1 (stereo in doubt)	37 µM	3 µM				
O=C(Nc1ccc(Cl)cn1)C(=O)N1CCC2(CC1)COc1ccccc12		0.49 µM				
O=C(Nc1ccc(Cl)cc1)C(=O)N1CCC2(CC1)COc1cc(C(F)(F)F)ccc12	21 µM		14 µL/min/mg	< 1 µL/min/mg	86%	
O=C(Nc1ccc(Cl)cc1)C(=O)N1CCC(c2ccnc3ccc(Cl)cc23)CC1	2.5 µM	0.019 µM	72 µL/min/mg	11 µL/min/mg		
O=C(Nc1ccc(Cl)cc1)C(=O)N1CCC(c2ccnc3cc(F)ccc23)CC1		0.019 µM	55 µL/min/mg	26 µL/min/mg	85%	
O=C(Nc1ccc(C(F)F)cc1)C(=O)N1CCC(c2ccnc3ccc(F)cc23)CC1	5.8 µM	0.021 µM	76 µL/min/mg	17 µL/min/mg		
O=C(Nc1ccc(Cl)cc1)C(=O)N1CCC2(CC1)COc1cc(C(F)F)ccc12	30 µM	0.03 µM	167 µL/min/mg	20 µL/min/mg	71%	
O=C(Nc1ccc(Cl)cc1)C(=O)N1CC[C@H](c2ccnc3ccc(F)cc23)[C@@H](O)C1 (stereo in doubt)	14 µM	0.0061 µM	17 µL/min/mg	4 µL/min/mg	18%	IC50 [6]: 0.33 µM; fraction unbound [7]: 0.011; IC50 (Cytochrome P450 2C8): 9.5 µM; fraction unbound [8]: 0.02; ΔTm [9]: 13 °C; half-life [10]: 1.4 h; Cmax [11]: 10 µM; inhibition at 10 µM (hERG (KCNH2) [12]): 34%; AUC(0-t) at 8 h [13]: 27.1 µM·h
O=C(Nc1ccc(Cl)cn1)C(=O)N1CCC(c2ccnc(C(F)(F)F)c2Cl)CC1	22 µM	0.301 µM	36 µL/min/mg	3.5 µL/min/mg		
O=C(Nc1ccc(Cl)cc1)C(=O)N1CC[C@H](c2ccnc3ccc(F)cc23)[C@H](O)C1 (stereo in doubt)	17.2 µM	0.11 µM				
O=C(Nc1ccc(Cl)cc1)C(=O)N1CCC(c2ccccc2)CC1		0.09 µM				ΔTm [9]: 12 °C; IC50 [14]: > 60 µM
CS(=O)(=O)NCCCNC(=O)/C(=N/O)Nc1ccc(F)c(Br)c1		0.34 µM				IC50 [14]: 5 µM

SMILES	IC50 [1]	IC50 [2]	microsomal CLint [3]	microsomal CLint [4]	inhibition at 10 µM (hERG (KCNH2) [5])	also measured
O=C(Nc1ccc(Cl)cc1F)C(=O)N1CCC(c2ccnc3ccc(F)cc23)CC1	6.7 µM	0.007 µM	108 µL/min/mg	10 µL/min/mg		
N#Cc1ccc(NC(=O)C(=O)N2CCC(c3ccnc4ccc(F)cc34)CC2)cc1	5.5 µM	0.036 µM	28 µL/min/mg	11 µL/min/mg	61%	
NC(=O)/C(=N/O)Nc1ccc(F)c(Cl)c1		24 µM				IC50 [14]: 78 µM
O=C(Nc1ccc(Cl)cc1)C(=O)N1CCC(c2ccnc3ccc(F)cc23)CC1	6.9 µM		97 µL/min/mg	9 µL/min/mg	64%	fraction unbound [7]: 0.003; IC50 (Cytochrome P450 2C8): 4.7 µM; fraction unbound [8]: 0.011; ΔTm [9]: 14 °C; IC50 (Cytochrome P450 2D6): > 10 µM; half-life [10]: 1.8 h; Cmax [11]: 5.1 µM; inhibition at 10 µM (hERG (KCNH2) [12]): 70%; IC50 (Cytochrome P450 2C9): 6.1 µM; AUC(0-t) at 8 h [13]: 19.3 µM·h
O=C(Nc1ccc(Cl)cc1F)C(=O)N1CCCC(c2ccnc3ccc(F)cc23)CC1 (racemic)	5.9 µM	0.008 µM	202 µL/min/mg	108 µL/min/mg	66%	
O=C(/C(=N/O)Nc1ccc(F)c(Cl)c1)N1CCC(c2ccccc2)CC1		14 µM				IC50 [14]: > 60 µM
C[C@@H](C(=O)Nc1ccc(Cl)cc1)[C@H]1CC[C@@H](c2ccnc3ccc(F)cc32)CC1			386 µL/min/mg	21.3 µL/min/mg		AUC(0-t) at 8 h [13]: 9.3 µM·h
O=C(Nc1ccc(C(F)(F)F)cc1)C(=O)N1CCC(c2ccnc3ccc(F)cc23)CC1	9.5 µM	0.09 µM	16 µL/min/mg	5.5 µL/min/mg	77%	
O=C(Nc1ccc(F)c(Cl)c1)C(=O)N1CCC(c2ccccc2)CC1		1.8 µM				ΔTm [9]: 1 °C; IC50 [14]: > 60 µM
O=C(Nc1ccc(Cl)cn1)C(=O)N1CCC(c2ccnc3ccnn23)CC1		0.433 µM				
CC1(C)CN(C(=O)C(=O)Nc2ccc(Cl)cc2)CCC1c1ccnc2ccc(F)cc12 (racemic)	4.5 µM	0.023 µM	72.9 µL/min/mg	28.8 µL/min/mg	71%	
O=C(Nc1ccc(Cl)cn1)C(=O)N1CCC(c2cccc(Cl)c2Cl)CC1		0.245 µM	77 µL/min/mg	40 µL/min/mg		
NS(=O)(=O)NCCCNC(=O)/C(=N/O)Nc1ccc(F)c(Cl)c1		1.2 µM				IC50 [14]: 10.3 µM
O=C(Nc1ccc(Cl)cc1)C(=O)N1CCC(c2ccnc3ccc(F)cc23)C(F)(F)C1 (racemic)	6.3 µM	0.009 µM	52 µL/min/mg	11.6 µL/min/mg	15%	
O=C(Nc1ccc(Cl)cn1)C(=O)N1CCC(c2ccnc3ccc(F)cc23)CC1	5.9 µM	0.07 µM	112 µL/min/mg	23 µL/min/mg		
O=C(Nc1ccc(Cl)cc1)C(=O)N1CC[C@@H](c2ccnc3ccc(F)cc23)[C@H](O)C1 (stereo in doubt)	15.3 µM	0.05 µM	18 µL/min/mg	5 µL/min/mg	10%	
